US7915276B2, “Berberrubine derivatives having antifungal activities” (priority 2006, dated 2011)

Legend:
human pathogenic fungi = assay: Antifungal activity against human pathogenic fungi (summary statements); assay type: cell-based
Source text: Candida albicans ATCC 10231, Candida lusitaniae ATCC 42720, Candida krusei ATCC 6258, Candida tropicalis ATCC 13803, Candida glabrata ATCC 48435, Candida parapsilosis ATCC 34136, Cryptococcus neoformans ATCC 36556, Aspergillus fumigatus ATCC 16424, Aspergillus flavus ATCC 64025, Aspergillus terreus ATCC 46941 and Mucor ramosissimus ATCC 90286 strains for the MIC (minimum inhibitory concentration) measurement were obtained from ATCC (American Type Culture Collection) in the U.S. The Candida albicans A207(clinical isolate) strain was used by isolating it from the patients.
The determination of MIC was performed according to the NCCLS (National Committee for Clinical Laboratory Standard) method. Each test sample solution was diluted two-fold and inoculated with a fungal suspension to reach a final inoculum size of 5×10^2 to 2.5×10^3 cell/mL. The Cryptococcus neoformans strain was cultured in the RPMI 1640 medium for 72 hours. Other strains were cultured for 48 hours.

[1] = biological target: T1, chitin synthase 2 of Saccharomyces cerevisiae ECY38-38A(pAS6) (Saccharomyces cerevisiae, UniProt P14180); assay: In vitro enzyme assay for chitin synthase 2 of Saccharomyces cerevisiae (enzyme 2); assay type: biochemical; settings: relative to polyoxin D (50% inhibitory activity = value 5)
T1 construct: made in house; host or cells: Saccharomyces cerevisiae ECY38-38A (chs1-23 chs2::LEU2 cal1/csd2) carrying plasmid pAS6, grown in galactose medium; 130,000 x g membrane pellet
T1 sequence (P14180 whole entry): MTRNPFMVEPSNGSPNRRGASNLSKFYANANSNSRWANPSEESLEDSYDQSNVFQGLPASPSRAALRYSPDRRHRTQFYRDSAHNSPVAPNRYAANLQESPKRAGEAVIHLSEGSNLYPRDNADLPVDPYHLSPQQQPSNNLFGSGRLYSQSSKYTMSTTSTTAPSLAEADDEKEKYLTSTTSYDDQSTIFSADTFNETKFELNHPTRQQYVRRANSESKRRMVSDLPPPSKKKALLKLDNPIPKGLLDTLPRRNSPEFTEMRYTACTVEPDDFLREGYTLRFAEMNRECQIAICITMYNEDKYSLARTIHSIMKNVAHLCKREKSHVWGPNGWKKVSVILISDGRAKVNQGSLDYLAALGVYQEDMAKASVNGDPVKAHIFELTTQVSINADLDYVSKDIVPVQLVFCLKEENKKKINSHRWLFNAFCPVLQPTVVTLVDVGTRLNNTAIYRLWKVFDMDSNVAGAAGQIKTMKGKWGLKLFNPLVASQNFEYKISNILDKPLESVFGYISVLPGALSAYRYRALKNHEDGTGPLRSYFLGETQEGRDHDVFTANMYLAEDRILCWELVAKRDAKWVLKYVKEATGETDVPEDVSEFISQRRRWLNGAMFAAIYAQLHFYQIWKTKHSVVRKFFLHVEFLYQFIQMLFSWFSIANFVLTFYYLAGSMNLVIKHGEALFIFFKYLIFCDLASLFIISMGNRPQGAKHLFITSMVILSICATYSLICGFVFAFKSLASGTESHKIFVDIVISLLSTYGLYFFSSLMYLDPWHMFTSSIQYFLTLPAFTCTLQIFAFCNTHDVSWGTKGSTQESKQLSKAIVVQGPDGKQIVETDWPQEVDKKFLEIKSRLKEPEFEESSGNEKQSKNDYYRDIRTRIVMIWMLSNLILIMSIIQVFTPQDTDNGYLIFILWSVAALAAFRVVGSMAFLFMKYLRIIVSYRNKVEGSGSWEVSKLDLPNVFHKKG
Procedure, shortened: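 Values are scores: 5 means 50% inhibition at the same concentration as polyoxin D, lower scores 2- to 16-fold higher concentration, higher scores ½ to ⅛. Radiolabel from 1.1 mM UDP-[14C]-GlcNAc was incorporated into TCA-insoluble chitin over 90 min at 30 °C (pH 7.5 Tris, 2 mM Co2+). The enzyme was a trypsin-activated membrane fraction from CHS2-only S. cerevisiae ECY38-38A(pAS6).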

[2] = system: Aspergillus flavus ATCC 64025; assay: In vitro antifungal activity (MIC), NCCLS method; assay type: cell-based; settings: for MIC (minimum inhibitory concentration): 48 hours
Procedure, shortened: (§1)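 MIC read as the lowest concentration inhibiting growth after 48 hours of culture. Setup follows NCCLS: compound diluted two-fold and inoculated at 5×10^2 to 2.5×10^3 cell/mL final.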

[3] = system: Candida albicans A207 (clinical isolate); assay: In vitro antifungal activity (MIC), NCCLS method; assay type: cell-based; settings: 48 hours
Procedure, shortened: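 Test samples were serially diluted two-fold, then inoculated with fungus to a final cell density of 5×10^2 to 2.5×10^3 cell/mL, following the NCCLS method. Plates were cultured for 48 hours and the minimum inhibitory concentration recorded.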

Candida krusei ATCC 6258 = assay: In vitro antifungal activity (MIC), NCCLS method; assay type: cell-based; settings: for MIC (minimum inhibitory concentration): 48 hours
Procedure, shortened: as §1

[4] = system: Candida albicans ATCC 10231; assay: In vitro antifungal activity (MIC), NCCLS method; assay type: cell-based; settings: for MIC (minimum inhibitory concentration): 48 hours
Procedure, shortened: as §1

[5] = system: Mucor ramosissimus ATCC 90286; assay: In vitro antifungal activity (MIC), NCCLS method; assay type: cell-based; settings: for MIC (minimum inhibitory concentration): 48 hours
Procedure, shortened: as §1

[6] = system: Candida glabrata ATCC 48435; assay: In vitro antifungal activity (MIC), NCCLS method; assay type: cell-based
Procedure, shortened: as §1

[7] = system: Aspergillus fumigatus ATCC 16424; assay: In vitro antifungal activity (MIC), NCCLS method; assay type: cell-based; settings: for MIC (minimum inhibitory concentration): 48 hours
Procedure, shortened: as §1

[8] = system: Aspergillus terreus ATCC 46941; assay: In vitro antifungal activity (MIC), NCCLS method; assay type: cell-based; settings: for MIC (minimum inhibitory concentration): 48 hours
Procedure, shortened: as §1

[9] = system: Candida lusitaniae ATCC 42720; assay: In vitro antifungal activity (MIC), NCCLS method; assay type: cell-based; settings: for MIC (minimum inhibitory concentration): 48 hours
Procedure, shortened: as §1

[10] = system: Candida tropicalis ATCC 13803; assay: In vitro antifungal activity (MIC), NCCLS method; assay type: cell-based; settings: for MIC (minimum inhibitory concentration): 48 hours
Procedure, shortened: as §1

[11] = system: Cryptococcus neoformans ATCC 36556; assay: In vitro antifungal activity (MIC), NCCLS method; assay type: cell-based; settings: 72 hours; for MIC (minimum inhibitory concentration): RPMI 1640 medium
Procedure, shortened: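 Broth microdilution per NCCLS: two-fold serial dilutions of test compound inoculated with fungal suspension at a final 5×10^2 to 2.5×10^3 cell/mL. Strains other than Cryptococcus neoformans were incubated 48 hours before MIC reading.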

[12] = system: Candida parapsilosis ATCC 34136; assay: In vitro antifungal activity (MIC), NCCLS method; assay type: cell-based
Procedure, shortened: as §1

chitin synthases = assay: Inhibitory activity against the chitin synthases (summary statements); assay type: biochemical
Source text: The inhibitory activities against the chitin synthase 1 of Candida albicans chs2 Δ chs 3 Δ (abbreviated as ‘enzyme 1’) and the chitin synthase 2 of Saccharomyces cerevisiae ECY38-38A(pAS6)(abbreviated as ‘enzyme 2’) was examined for compound Nos. 1 to 70 compound and polyoxin D, a positive control compound.
The inhibitory activity against the chitin synthase 1 prepared from Candida albicans and the chitin synthase 2 prepared from Saccharomyces cerevisiae were examined as follows. A reaction mixture containing 32 mM Tris-HCl (pH 7.5), 2 mM cobalt acetate, 1.1 mM UDP-[U-^14C]-N-acetyl-d-glucosamine (GlcNAc) (400,000 cpm/μmol), 2 μL of trypsin (0.75 mg/mL), 20 μL of each crude enzyme and 14 μL of each test sample was kept at 30° C. for 15 minutes to activate the enzyme. Then, 2 μL of trypsin inhibitor (1.5 mg/mL) was added and the mixture was kept in an ice bath for 10 minutes to deactivate trypsin. 2 μL of 0.8 M N-acetyl-d-glucosamine was added to a total volume of 50 μL and reaction was performed at 30° C. for 90 minutes. The reaction was stopped using 1 mL of 10% TCA solution and the reaction solution was filtered with a GF/C filter and dried at room temperature. After adding 3 mL of a scintillation cocktail solution, the amount of isotopes was measured using a liquid scintillation counter. Percentage inhibition against each enzyme was calculated by the following Equation 1.

[13] = biological target: T2, chitin synthase 1 of Candida albicans chs2 Δ chs 3 Δ (Candida albicans, UniProt P23316); assay: In vitro enzyme assay for chitin synthase 1 of Candida albicans (enzyme 1); assay type: biochemical; settings: relative to polyoxin D (50% inhibitory activity = value 5)
T2 construct: Crude enzyme was prepared using the Candida albicans chs2 Δ chs 3 Δ mutant; endogenous in cells; host or cells: Candida albicans chs2Δ/chs2Δ chs3Δ/chs3Δ mutant; 130,000 x g membrane pellet
T2 sequence (P23316 whole entry, stated change not applied): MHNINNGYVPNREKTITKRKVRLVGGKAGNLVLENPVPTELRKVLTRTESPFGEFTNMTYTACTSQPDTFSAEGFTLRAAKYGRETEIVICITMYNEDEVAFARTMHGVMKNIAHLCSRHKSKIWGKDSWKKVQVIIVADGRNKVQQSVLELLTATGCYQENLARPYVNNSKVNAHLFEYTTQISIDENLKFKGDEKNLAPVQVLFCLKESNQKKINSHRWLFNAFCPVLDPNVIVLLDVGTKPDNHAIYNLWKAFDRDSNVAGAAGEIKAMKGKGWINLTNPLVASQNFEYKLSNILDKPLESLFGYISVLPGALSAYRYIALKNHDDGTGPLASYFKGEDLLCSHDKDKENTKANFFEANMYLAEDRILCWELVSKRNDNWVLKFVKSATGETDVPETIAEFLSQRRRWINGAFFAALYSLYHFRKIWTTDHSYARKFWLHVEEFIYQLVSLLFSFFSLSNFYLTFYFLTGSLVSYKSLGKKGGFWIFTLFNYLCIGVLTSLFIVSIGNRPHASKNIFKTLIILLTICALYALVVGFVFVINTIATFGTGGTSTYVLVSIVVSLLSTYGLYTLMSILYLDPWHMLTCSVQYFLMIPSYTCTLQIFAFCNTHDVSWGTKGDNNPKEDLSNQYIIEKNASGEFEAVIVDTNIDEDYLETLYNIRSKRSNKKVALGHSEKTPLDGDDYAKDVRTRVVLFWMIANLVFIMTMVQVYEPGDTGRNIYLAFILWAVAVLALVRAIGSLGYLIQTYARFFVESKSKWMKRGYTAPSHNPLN
Procedure, shortened: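 Trypsin-activated crude membrane chitin synthase 1 from C. albicans chs2Δ chs3Δ was incubated 90 min at 30 °C with 1.1 mM UDP-[14C]GlcNAc and 2 mM cobalt acetate in Tris-HCl pH 7.5. Filtered TCA precipitate was counted by scintillation; values are scores 1–8 against polyoxin D (5 = same concentration).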

[14] = Candida glabrata ATCC 48435, 48 hours
[15] = Candida parapsilosis ATCC 34136, 48 hours

Row | Compound | Relative activity Enzyme 2 [1] | MIC (minimum inhibitory concentration) [2] | MIC (minimum inhibitory concentration) [3] | MIC (minimum inhibitory concentration) (Candida krusei ATCC 6258) | MIC (minimum inhibitory concentration) [4] | MIC (minimum inhibitory concentration) [5] | MIC (minimum inhibitory concentration) [6, 14] | MIC (minimum inhibitory concentration) [7] | MIC (minimum inhibitory concentration) [8] | MIC (minimum inhibitory concentration) [9] | MIC (minimum inhibitory concentration) [10] | MIC (minimum inhibitory concentration) [11] | MIC (minimum inhibitory concentration) [12, 15] | Relative activity Enzyme 1 [13] | other results
1 | 13-(4-Isopropylbenzyl)-9-O-butylberberrubine iodide [Compound No. 18] | 7 (compounds having the inhibitory activity at ½, ¼ and ⅛ lower concentrations than that of polyoxin D were given the values of 6, 7 and 8, respectively) | 8 µg/mL | 0.5 µg/mL | 1 µg/mL | 0.5 µg/mL | 4 µg/mL | 4 µg/mL | 2 µg/mL | 8 µg/mL | 1 µg/mL | 0.25 µg/mL | 1 µg/mL | 4 µg/mL | 4 (Compounds having the inhibitory activity at 2-fold, 4-fold, 8-fold and 16-fold higher concentrations than that of polyoxin D were given the values of 4, 3, 2 and 1, respectively) | antifungal activities compared with amphotericin B (in words) (human pathogenic fungi): comparable to that of amphotericin B; inhibitory activities against the chitin synthases (in words) (chitin synthases): exceptionally superior inhibitory activities
2 | 13-(4-tert-Butylbenzyl)-9-O-octylberberrubine iodide [Compound No. 10] | 5 (A compound having the same inhibitory activity as that of polyoxin D at the same concentration was given the value 5) | 4 µg/mL | 0.25 µg/mL | 1 µg/mL | 0.25 µg/mL | 2 µg/mL | 2 µg/mL | 2 µg/mL | 4 µg/mL | 0.5 µg/mL | 0.125 µg/mL | 1 µg/mL | 2 µg/mL | 3 (Compounds having the inhibitory activity at 2-fold, 4-fold, 8-fold and 16-fold higher concentrations than that of polyoxin D were given the values of 4, 3, 2 and 1, respectively) | –
3 | COc1ccc2c(Cc3ccc(C(C)(C)C)cc3)c3[n+](cc2c1OC)CCc1cc2c(cc1-3)OCO2.[Cl-] [Comparative compound 1, reference compound] | 3 (Compounds having the inhibitory activity at 2-fold, 4-fold, 8-fold and 16-fold higher concentrations than that of polyoxin D were given the values of 4, 3, 2 and 1, respectively) | – | – | – | – | – | – | – | – | – | – | – | – | 1 (Compounds having the inhibitory activity at 2-fold, 4-fold, 8-fold and 16-fold higher concentrations than that of polyoxin D were given the values of 4, 3, 2 and 1, respectively) | MIC ([2]; ATCC64025, 48 hours, read-out: MIC (minimum inhibitory concentration)): > 128 µg/mL; MIC ([3]; read-out: MIC (minimum inhibitory concentration)): 8 µg/mL; MIC (Candida krusei ATCC 6258; Pichia kudriavzevii, ATCC6258, 48 hours, read-out: MIC (minimum inhibitory concentration)): 16 µg/mL; MIC ([4]; ATCC10231, 48 hours, read-out: MIC (minimum inhibitory concentration)): 4 µg/mL; MIC ([5]; ATCC90286, 48 hours, read-out: MIC (minimum inhibitory concentration)): 128 µg/mL; antifungal activities (in words) ([6]; Candida glabrata): no antifungal activities; MIC ([6]; Nakaseomyces glabratus, ATCC48435, Candida glabrata ATCC 48435, 48 hours, read-out: MIC (minimum inhibitory concentration)): > 128 µg/mL; MIC ([7]; ATCC16424, 48 hours, read-out: MIC (minimum inhibitory concentration)): 128 µg/mL; MIC ([8]; ATCC46941, 48 hours, read-out: MIC (minimum inhibitory concentration)): > 128 µg/mL; MIC ([9]; Clavispora lusitaniae, ATCC42720, 48 hours, read-out: MIC (minimum inhibitory concentration)): 8 µg/mL; MIC ([10]; ATCC13803, 48 hours, read-out: MIC (minimum inhibitory concentration)): 2 µg/mL; MIC ([11]; ATCC36556, RPMI 1640 medium, read-out: MIC (minimum inhibitory concentration)): 8 µg/mL; antifungal activities (in words) ([12]; Candida parapsilosis): no antifungal activities; MIC ([12]; Lodderomyces parapsilosis, ATCC34136, Candida parapsilosis ATCC 34136, 48 hours, read-out: MIC (minimum inhibitory concentration)): > 128 µg/mL
4 | COc1ccc2c(Cc3ccc(C(C)C)cc3)c3[n+](cc2c1OCCCCCCCl)CCc1cc2c(cc1-3)OCO2.[I-] [Compound No. 22, 13-(4-Isopropylbenzyl)-9-O-(6-chlorohexyl)berberrubine iodide] | 5 (A compound having the same inhibitory activity as that of polyoxin D at the same concentration was given the value 5) | 8 µg/mL | 0.5 µg/mL | 1 µg/mL | 0.5 µg/mL | 4 µg/mL | 2 µg/mL | 2 µg/mL | 8 µg/mL | 2 µg/mL | 0.5 µg/mL | 1 µg/mL | 2 µg/mL | 2 (Compounds having the inhibitory activity at 2-fold, 4-fold, 8-fold and 16-fold higher concentrations than that of polyoxin D were given the values of 4, 3, 2 and 1, respectively) | –
5 | COc1ccc2cc3[n+](cc2c1O)CCc1cc2c(cc1-3)OCO2 [berberrubine] | – | – | – | – | – | – | – | – | – | – | – | – | – | – | MIC (human pathogenic fungi; berberrubine, the starting material, strains not specified): 256 to 512 µg/mL
